Results taken from ChEMBL document CHEMBL3991601, “The target landscape of clinical kinase drugs” (Science, 2017).
Active and inactive are the calls of the source. Cut-off read from the data, not from the text of the source, for most assays here: actives have a measured Kd and inactives only a lower limit.

Assays:
[1] = biological target: Casein kinase I isoform alpha (Homo sapiens, UniProt P48729)
[2] = biological target: GTP-binding protein 4 (Homo sapiens, UniProt Q9BZE4)
[3] = biological target: T1, Activin receptor type-1B (Homo sapiens, UniProt P36896)
T1 sequence (P36896 whole entry): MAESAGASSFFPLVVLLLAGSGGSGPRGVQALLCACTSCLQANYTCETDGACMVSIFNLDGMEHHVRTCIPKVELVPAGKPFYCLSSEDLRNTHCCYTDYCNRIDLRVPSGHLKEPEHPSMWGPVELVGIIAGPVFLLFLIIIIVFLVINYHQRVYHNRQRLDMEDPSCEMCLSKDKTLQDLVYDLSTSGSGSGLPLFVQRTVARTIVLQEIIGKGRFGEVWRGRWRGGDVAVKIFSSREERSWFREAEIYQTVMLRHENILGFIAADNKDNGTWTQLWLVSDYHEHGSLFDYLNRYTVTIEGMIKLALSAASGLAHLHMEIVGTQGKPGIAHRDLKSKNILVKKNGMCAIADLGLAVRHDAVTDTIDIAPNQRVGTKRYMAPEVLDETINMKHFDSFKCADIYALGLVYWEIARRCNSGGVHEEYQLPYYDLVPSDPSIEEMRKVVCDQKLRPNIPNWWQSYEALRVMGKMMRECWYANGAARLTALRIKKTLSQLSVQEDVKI

[4] = biological target: T2, Septin-9 (Homo sapiens, UniProt Q9UHD8)
T2 sequence (Q9UHD8 whole entry): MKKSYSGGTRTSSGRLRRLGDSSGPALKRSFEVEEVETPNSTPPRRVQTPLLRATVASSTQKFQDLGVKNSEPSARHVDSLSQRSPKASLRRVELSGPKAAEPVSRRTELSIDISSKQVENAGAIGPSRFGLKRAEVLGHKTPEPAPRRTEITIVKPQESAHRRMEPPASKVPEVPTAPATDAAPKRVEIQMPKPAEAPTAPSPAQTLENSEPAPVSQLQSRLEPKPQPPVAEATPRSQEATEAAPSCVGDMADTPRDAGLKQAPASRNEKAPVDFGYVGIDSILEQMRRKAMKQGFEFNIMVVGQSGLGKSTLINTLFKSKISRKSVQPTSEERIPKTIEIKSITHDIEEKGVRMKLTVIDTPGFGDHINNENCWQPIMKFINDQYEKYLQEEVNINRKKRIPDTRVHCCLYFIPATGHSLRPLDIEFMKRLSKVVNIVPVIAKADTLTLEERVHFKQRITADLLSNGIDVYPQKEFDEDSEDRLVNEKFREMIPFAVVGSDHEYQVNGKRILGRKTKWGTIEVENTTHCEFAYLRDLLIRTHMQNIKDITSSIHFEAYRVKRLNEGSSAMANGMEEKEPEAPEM

[5] = biological target: T3, Serine/threonine-protein kinase TAO2 (Homo sapiens, UniProt Q9UL54)
T3 sequence (Q9UL54 whole entry): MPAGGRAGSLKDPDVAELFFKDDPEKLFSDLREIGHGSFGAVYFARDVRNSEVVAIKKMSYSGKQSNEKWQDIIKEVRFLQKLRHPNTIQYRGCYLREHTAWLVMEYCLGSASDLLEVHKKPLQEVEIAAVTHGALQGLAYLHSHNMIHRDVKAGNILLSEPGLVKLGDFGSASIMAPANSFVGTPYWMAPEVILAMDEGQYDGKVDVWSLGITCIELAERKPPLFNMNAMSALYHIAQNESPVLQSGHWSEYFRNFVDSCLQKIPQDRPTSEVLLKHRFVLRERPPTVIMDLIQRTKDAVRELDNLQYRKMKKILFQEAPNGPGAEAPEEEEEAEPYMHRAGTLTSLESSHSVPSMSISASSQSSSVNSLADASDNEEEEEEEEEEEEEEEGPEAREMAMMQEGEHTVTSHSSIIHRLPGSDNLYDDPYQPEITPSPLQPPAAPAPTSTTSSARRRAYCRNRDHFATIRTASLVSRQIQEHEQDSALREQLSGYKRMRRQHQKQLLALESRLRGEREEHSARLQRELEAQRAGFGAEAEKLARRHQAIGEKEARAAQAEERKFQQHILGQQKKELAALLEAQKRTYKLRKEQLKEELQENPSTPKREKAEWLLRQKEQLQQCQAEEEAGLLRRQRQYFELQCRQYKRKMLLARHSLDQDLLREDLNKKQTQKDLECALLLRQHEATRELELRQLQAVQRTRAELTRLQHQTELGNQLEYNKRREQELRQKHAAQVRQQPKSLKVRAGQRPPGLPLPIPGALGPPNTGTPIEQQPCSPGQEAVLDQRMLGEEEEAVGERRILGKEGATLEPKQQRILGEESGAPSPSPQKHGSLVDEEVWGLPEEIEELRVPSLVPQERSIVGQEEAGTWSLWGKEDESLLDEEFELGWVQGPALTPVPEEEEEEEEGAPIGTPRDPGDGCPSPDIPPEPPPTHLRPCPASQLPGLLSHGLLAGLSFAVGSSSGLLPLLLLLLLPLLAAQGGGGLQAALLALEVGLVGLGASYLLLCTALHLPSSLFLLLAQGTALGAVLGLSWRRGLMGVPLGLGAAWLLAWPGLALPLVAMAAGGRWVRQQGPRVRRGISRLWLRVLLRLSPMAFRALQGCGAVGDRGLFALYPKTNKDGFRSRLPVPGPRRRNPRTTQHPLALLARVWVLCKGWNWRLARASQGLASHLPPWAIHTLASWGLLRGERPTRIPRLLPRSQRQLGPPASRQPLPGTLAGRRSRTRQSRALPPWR

[6] = biological target: Tyrosine-protein kinase JAK1 (Homo sapiens, UniProt P23458)
Tyrosine-protein kinase JAK1, sequence (P23458 whole entry): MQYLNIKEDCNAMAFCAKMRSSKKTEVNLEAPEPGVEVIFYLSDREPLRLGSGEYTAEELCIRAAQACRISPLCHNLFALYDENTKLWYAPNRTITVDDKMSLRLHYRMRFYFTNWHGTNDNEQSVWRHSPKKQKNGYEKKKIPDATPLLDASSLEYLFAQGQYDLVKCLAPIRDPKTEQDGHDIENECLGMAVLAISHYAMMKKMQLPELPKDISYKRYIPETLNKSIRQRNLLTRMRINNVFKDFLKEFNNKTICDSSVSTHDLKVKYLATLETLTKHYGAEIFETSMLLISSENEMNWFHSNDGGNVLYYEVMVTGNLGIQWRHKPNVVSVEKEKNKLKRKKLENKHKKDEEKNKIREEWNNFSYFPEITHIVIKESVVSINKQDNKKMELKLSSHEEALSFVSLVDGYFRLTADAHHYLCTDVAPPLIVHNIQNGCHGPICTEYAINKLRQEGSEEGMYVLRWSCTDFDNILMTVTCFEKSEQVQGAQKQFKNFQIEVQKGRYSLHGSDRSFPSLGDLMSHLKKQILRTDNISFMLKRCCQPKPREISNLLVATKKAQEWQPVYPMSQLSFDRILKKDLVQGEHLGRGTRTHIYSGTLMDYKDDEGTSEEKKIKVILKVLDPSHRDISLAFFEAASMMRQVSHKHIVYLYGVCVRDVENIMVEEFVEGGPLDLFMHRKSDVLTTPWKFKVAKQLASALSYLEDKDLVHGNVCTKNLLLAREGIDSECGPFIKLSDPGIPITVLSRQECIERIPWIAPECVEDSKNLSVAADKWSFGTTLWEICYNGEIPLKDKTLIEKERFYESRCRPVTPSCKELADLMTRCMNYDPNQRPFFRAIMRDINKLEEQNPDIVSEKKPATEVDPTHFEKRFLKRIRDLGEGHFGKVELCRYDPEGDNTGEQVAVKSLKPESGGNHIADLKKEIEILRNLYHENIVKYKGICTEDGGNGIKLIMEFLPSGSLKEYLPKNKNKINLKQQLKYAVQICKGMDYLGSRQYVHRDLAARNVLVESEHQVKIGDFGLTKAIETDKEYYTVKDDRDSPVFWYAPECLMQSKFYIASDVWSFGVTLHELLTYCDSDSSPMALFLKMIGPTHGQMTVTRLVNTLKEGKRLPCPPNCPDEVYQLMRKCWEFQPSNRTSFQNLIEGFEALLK

[7] = biological target: T4, Serine/threonine-protein kinase ULK3 (Homo sapiens, UniProt Q6PHR2)
T4 sequence (Q6PHR2 whole entry): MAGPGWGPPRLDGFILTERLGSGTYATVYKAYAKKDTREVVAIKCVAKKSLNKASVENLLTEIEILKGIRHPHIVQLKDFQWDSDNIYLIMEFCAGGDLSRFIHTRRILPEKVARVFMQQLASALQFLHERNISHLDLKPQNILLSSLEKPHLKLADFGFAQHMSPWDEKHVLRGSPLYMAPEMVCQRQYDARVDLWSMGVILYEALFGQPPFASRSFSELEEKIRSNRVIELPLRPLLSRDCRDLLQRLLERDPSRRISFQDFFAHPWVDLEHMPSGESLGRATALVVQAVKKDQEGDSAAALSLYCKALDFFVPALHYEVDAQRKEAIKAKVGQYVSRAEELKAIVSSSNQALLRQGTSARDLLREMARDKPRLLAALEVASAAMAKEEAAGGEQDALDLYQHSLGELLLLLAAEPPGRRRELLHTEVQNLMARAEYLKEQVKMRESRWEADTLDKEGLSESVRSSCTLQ

[8] = biological target: Rho-associated protein kinase 1 (Homo sapiens, UniProt Q13464)
Rho-associated protein kinase 1, sequence (Q13464 whole entry): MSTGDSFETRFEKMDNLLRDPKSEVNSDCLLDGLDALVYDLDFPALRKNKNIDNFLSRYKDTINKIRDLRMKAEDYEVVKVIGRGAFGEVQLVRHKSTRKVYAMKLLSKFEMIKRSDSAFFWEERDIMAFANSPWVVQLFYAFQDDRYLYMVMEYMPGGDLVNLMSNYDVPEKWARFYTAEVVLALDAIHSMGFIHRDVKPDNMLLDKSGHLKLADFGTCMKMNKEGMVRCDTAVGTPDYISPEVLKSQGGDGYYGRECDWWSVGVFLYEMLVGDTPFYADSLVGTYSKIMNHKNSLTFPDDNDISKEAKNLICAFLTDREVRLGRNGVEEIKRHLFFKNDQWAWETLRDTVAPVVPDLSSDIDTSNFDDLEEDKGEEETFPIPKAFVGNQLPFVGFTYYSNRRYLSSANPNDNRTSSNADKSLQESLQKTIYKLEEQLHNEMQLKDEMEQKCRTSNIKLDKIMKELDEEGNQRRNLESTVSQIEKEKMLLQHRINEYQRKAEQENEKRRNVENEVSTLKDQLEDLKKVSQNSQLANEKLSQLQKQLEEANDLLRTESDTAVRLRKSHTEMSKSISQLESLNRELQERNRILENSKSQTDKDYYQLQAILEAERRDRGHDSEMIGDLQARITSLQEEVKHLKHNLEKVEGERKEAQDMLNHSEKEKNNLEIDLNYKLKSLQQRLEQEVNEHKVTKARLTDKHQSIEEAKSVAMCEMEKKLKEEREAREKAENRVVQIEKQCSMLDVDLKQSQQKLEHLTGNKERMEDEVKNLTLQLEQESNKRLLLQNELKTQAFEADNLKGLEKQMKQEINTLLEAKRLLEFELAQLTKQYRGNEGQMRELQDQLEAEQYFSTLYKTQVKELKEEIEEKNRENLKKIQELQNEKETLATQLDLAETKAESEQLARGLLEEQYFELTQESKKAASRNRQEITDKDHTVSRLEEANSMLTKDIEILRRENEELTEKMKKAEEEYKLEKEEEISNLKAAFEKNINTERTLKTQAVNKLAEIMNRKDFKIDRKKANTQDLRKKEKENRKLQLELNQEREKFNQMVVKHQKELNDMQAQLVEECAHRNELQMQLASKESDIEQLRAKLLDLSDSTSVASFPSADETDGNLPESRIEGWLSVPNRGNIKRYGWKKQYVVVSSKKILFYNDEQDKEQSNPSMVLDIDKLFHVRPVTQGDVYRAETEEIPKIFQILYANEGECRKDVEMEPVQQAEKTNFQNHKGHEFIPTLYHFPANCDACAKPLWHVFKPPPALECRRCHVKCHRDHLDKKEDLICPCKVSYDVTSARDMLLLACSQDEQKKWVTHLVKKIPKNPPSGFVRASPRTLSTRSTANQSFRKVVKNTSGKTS

Measured: Kd
Note: in the data inactive means no Kd found up to 30 µM.

Casein kinase I isoform alpha, sequence (P48729 whole entry, canonical isoform): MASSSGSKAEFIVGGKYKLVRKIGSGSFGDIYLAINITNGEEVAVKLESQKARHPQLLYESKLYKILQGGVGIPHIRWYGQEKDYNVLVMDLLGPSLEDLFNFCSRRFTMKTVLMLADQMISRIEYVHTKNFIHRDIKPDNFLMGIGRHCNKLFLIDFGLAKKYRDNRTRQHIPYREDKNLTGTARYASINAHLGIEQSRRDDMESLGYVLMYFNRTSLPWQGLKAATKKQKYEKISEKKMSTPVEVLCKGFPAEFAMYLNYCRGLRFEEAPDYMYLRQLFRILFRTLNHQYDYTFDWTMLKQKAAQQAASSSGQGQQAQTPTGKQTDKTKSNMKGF

CN1CCC(CNc2ccc3ncc(-c4cccc(OC(F)(F)F)c4)n3n2)CC1 [SGI-1776]
inactive: [1] > 30 µM | [2] > 30 µM | [3] > 30 µM | [4] > 30 µM | [5] > 30 µM | [6] > 30 µM | [7] > 30 µM | [8] > 30 µM

O=c1sn(-c2cccc3ccccc23)c(=O)n1Cc1ccccc1 [TIDEGLUSIB]
inactive: [1] > 30 µM | [2] > 30 µM | [3] > 30 µM | [4] > 30 µM | [5] > 30 µM | [6] > 30 µM | [7] > 30 µM | [8] > 30 µM

CNC(=O)c1cc(Oc2ccc(NC(=O)Nc3ccc(Cl)c(C(F)(F)F)c3)c(F)c2)ccn1 [REGORAFENIB]
inactive: [1] > 30 µM | [2] > 30 µM | [3] > 30 µM | [4] > 30 µM | [5] > 30 µM | [6] > 30 µM | [7] > 30 µM | [8] > 30 µM

Cc1ccc(-n2nc(C(C)(C)C)cc2NC(=O)NCc2cc(F)ccc2Oc2ccc3c(cnn3CCO)c2)cc1 [PEXMETINIB]
inactive: [1] > 30 µM | [2] > 30 µM | [3] > 30 µM | [4] > 30 µM | [5] > 30 µM | [6] > 30 µM | [7] > 30 µM | [8] > 30 µM

CCN1CCN(Cc2ccc(-c3cc4c(N[C@H](C)c5ccccc5)ncnc4[nH]3)cc2)CC1 [AEE-788]
inactive: [1] > 30 µM | [2] > 30 µM | [3] > 30 µM | [4] > 30 µM | [5] > 30 µM | [6] > 30 µM | [7] > 30 µM | [8] > 30 µM

CN(C)C(=O)c1cc2cnc(Nc3ccc(N4CCNCC4)cn3)nc2n1C1CCCC1 [RIBOCICLIB]
inactive: [1] > 30 µM | [2] > 30 µM | [3] > 30 µM | [4] > 30 µM | [5] > 30 µM | [6] > 30 µM | [7] > 30 µM | [8] > 30 µM

COCCNCc1ccc(-c2cc3nccc(Oc4ccc(NC(=S)NC(=O)Cc5ccc(F)cc5)cc4F)c3s2)nc1 [GLESATINIB]
inactive: [1] > 30 µM | [2] > 30 µM | [3] > 30 µM | [4] > 30 µM | [5] > 30 µM | [6] > 30 µM | [7] > 30 µM | [8] > 30 µM

Cn1cc(-c2ccc3nnc(C(F)(F)c4ccc5ncccc5c4)n3n2)cn1 [JNJ-38877605]
inactive: [1] > 30 µM | [2] > 30 µM | [3] > 30 µM | [4] > 30 µM | [5] > 30 µM | [6] > 30 µM | [7] > 30 µM | [8] > 30 µM

CC[C@H](Nc1ncnc2[nH]cnc12)c1nc2cccc(F)c2c(=O)n1-c1ccccc1 [IDELALISIB]
inactive: [1] > 30 µM | [2] > 30 µM | [3] > 30 µM | [4] > 30 µM | [5] > 30 µM | [6] > 30 µM | [7] > 30 µM | [8] > 30 µM

CN1CC[C@@H](c2c(O)cc(O)c3c(=O)cc(-c4ccccc4Cl)oc23)[C@@H]1CO
inactive: [1] > 30 µM | [2] > 30 µM | [3] > 30 µM | [4] > 30 µM | [5] > 30 µM | [6] > 30 µM | [7] > 30 µM | [8] > 30 µM

CN1N=C(N)c2cn([C@@H]3O[C@H](COP(=O)(O)O)[C@@H](O)[C@H]3O)c3ncnc1c23 [TRICIRIBINE PHOSPHATE]
inactive: [1] > 30 µM | [2] > 30 µM | [3] > 30 µM | [4] > 30 µM | [5] > 30 µM | [6] > 30 µM | [7] > 30 µM | [8] > 30 µM

O=C(c1ccc(F)c(F)c1Nc1ccc(I)cc1F)N1CC(O)([C@@H]2CCCCN2)C1 [COBIMETINIB]
inactive: [1] > 30 µM | [2] > 30 µM | [3] > 30 µM | [4] > 30 µM | [5] > 30 µM | [6] > 30 µM | [7] > 30 µM | [8] > 30 µM
